In patent US9120779B2, “Inhibitors of HCV NS5A” (PRESIDIO PHARMACEUTICALS, INC., priority 2008, dated 2015) one finds EC50 data, which are given here for 35 molecules.

Where two headings read alike, the source gives them in different places.

For the assay, the system named is HCV genotype 1b replicon in Huh 7 cells. Description: HCV replicon assay (luciferase readout, 1b_Huh-Luc/Neo-ET cell line). To be noted: Hepatitis C virus, Huh-7, 72 h. Format: cell-based. How it is done: Biological activity of the compounds of the invention was determined using an HCV replicon assay. The 1b_Huh-Luc/Neo-ET cell line persistently expressing a bicistronic genotype 1b replicon in Huh 7 cells was obtained from R^eBLikon GMBH. This cell line was used to test compound inhibition using luciferase enzyme activity readout as a measurement of compound inhibition of replicon levels.
On Day 1 (the day after plating), each compound is added in triplicate to the cells. Plates incubated for 72 h prior to running the luciferase assay. Enzyme activity was measured using a Bright-Glo Kit (cat. number E2620) manufactured by Promega Corporation. The following equation was used to generate a percent control value for each compound. % Control=(Average Compound Value/Average Control)*100
The EC50 value was determined using GraphPad Prism and the following equation: Y=Bottom+(Top−Bottom)/(1+10^((Log IC50−X)*HillSlope))
EC50 values of compounds are repeated several times in the replicon assay.
Example compounds of the disclosed invention are illustrated in Tables 1-9 attached as appendices. The tables show inhibitory activity of many of the example compounds with respect to HCV 1b. […] The tables further provide mass spectrometry results for the synthesized example compounds.

Setting [1] is: read-out: Inhibition of HCV genotype 1b, Table 3, 72 h incubation.
Setting [2] is: read-out: Inhibition of HCV genotype 1b, Table 4, 72 h incubation.
Where [3] appears, read: read-out: Inhibition of HCV genotype 1b, Table 5, 72 h incubation.
Where [4] appears, read: read-out: Inhibition of HCV genotype 1b, Table 1, 72 h incubation.

On to `COC(=O)N[C@@H](C(=O)N1CCC[C@H]1c1ncc(-c2cc(F)c(N3CCC(c4cnc([C@@H]5CCCN5C(=O)[C@H](NC(=O)OC(C)(C)C)c5ccccc5)[nH]4)CC3)c(F)c2)[nH]1)c1ccccc1` [compound 460], for which the EC50 under setting [1] was < 1 nM.
For the molecule `COC(=O)N[C@H](C(=O)N1CCC[C@H]1c1nc2ccc(-c3ccc(-c4ccc5nc([C@H](C)NC(=O)[C@H](C(C)C)N(C)C)[nH]c5c4)cc3)cc2[nH]1)C(C)C` [compound 935], the EC50 under setting [2] is < 1 nM.
As for `COC(=O)N[C@H](C(=O)N1CCC[C@H]1c1ncc(-c2ccc(C34CCC(c5cnc([C@@H]6CCCN6C(=O)[C@@H](NC6CCOCC6)C(C)C)[nH]5)(CC3)CC4)cc2)[nH]1)C(C)C` [compound 2054], the EC50 under setting [3] was 1 to 9.9 nM.
As for `CC(C)(C)OC(=O)N[C@@H](C(=O)N1CCC[C@H]1c1ncc(-c2ccc(C3CCC(c4cnc([C@@H]5CCCN5C(=O)[C@H](NC(=O)OC(C)(C)C)c5ccccc5)o4)CC3)cc2)[nH]1)c1ccccc1` (some centres unmarked) [compound 352], the EC50 under setting [4] is 1 to 9.9 nM.
Take `CC(C)[C@@H](C(=O)N1CCC[C@H]1c1ncc(-c2ccc(C34CCC(c5cnc([C@@H]6CCCN6C(=O)[C@H](C(C)C)N(C)C)[nH]5)(CC3)CC4)cc2)[nH]1)N(C)C` [compound 919]: the EC50 under setting [3] is 10 to 999 nM.
In the case of `COC(=O)N[C@H](C(=O)N1CCC[C@H]1c1nc2ccc(-c3ccc(-c4ccc5nc([C@H](C)NC(=O)[C@@H](C(C)C)N(C)C)[nH]c5c4)cc3)cc2[nH]1)C(C)C` [compound 936], the EC50 under setting [2] is < 1 nM.
Still for that read-out and setting: next, `COC(=O)N[C@H](C(=O)N1CCC[C@H]1c1nc2ccc(-c3ccc(-c4ccc5nc([C@@H]6CCCN6C(=O)[C@H](C(C)C)N(C)C)[nH]c5c4)cc3)cc2[nH]1)C(C)C` [compound 933]: < 1 nM.
With `CNC(=O)N[C@H](C(=O)N1CCC[C@H]1c1ncc(C23CCC(c4ccc(-c5cnc([C@@H]6CCCN6C(=O)[C@@H](NC(=O)OC)C(C)C)[nH]5)cc4)(CC2)CC3)[nH]1)C(C)C` [compound 2099], the EC50 under setting [3] is < 1 nM.
On the same count and under the same terms, with `CCNC(=O)N[C@@H](C(=O)N1CCC[C@H]1c1ncc(C23CCC(c4ccc(-c5cnc([C@@H]6CCCN6C(=O)[C@@H](NC(=O)OC)C(C)C)[nH]5)cc4)(CC2)CC3)[nH]1)c1ccccc1` [compound 2090] the figure was < 1 nM.
As to `COC(=O)N[C@@H](C(=O)N[C@@H](C)c1ncc(C23CCC(c4ccc(-c5cnc([C@@H]6CCCN6C(=O)[C@H](NC(=O)OC)c6ccccc6)[nH]5)cc4)(CC2)CC3)[nH]1)c1ccccc1` [compound 2098], the EC50 under setting [3] is < 1 nM.
With `COC(=O)N[C@H](C(=O)N(C)[C@@H](C)c1ncc(C2CCN(c3c(F)cc(-c4cnc([C@@H]5CCCN5C(=O)[C@@H](NC(=O)OC)C(C)C)[nH]4)cc3F)CC2)[nH]1)C(C)C` [compound 505], under setting [1], the EC50 is < 1 nM.
For `COC(=O)N[C@@H](C(=O)N1CCC[C@H]1c1ncc(-c2ccc(C34CCC(c5cnc([C@@H]6CCCN6C(=O)[C@@H](NC(=O)N6CCN(C)CC6)C(C)C)[nH]5)(CC3)CC4)cc2)[nH]1)c1ccccc1` [compound 637], the EC50 under setting [3] was in the range of 1 to 9.9 nM.
`COC(=O)N[C@H](C(=O)N1CCC[C@H]1c1ncc(-c2ccc(C34CCC(c5cnc([C@@H]6CCCN6C(=O)[C@H](NC6CCOCC6)C(C)C)[nH]5)(CC3)CC4)cc2)[nH]1)C(C)C` [compound 2055]: the EC50 under setting [3] is < 1 nM.
As for `COC(=O)N[C@H](C(=O)N[C@@H](C)c1nc2ccc(-c3ccc(-c4ccc5nc([C@@H]6CCCN6C(=O)[C@@H](C(C)C)N(C)C)[nH]c5c4)cc3)cc2[nH]1)C(C)C` [compound 938], under setting [2], the EC50 was < 1 nM.
Regarding `COC(=O)N[C@@H](C(=O)N1CCC[C@H]1c1ncc(-c2ccc(C3CCC(c4cnc([C@@H]5CCCN5C(=O)[C@@H](c5ccccc5)N(C)C)[nH]4)CC3)cc2)[nH]1)c1ccccc1` (some centres unmarked) [compound 376], under setting [4], the EC50 was < 1 nM.
On to `COC(=O)N[C@@H](C)C(=O)N1CCC[C@H]1c1ncc(C23CCC(c4ccc(-c5cnc([C@@H]6CCCN6C(=O)[C@@H](NC(=O)OC)C(C)C)[nH]5)cc4)(CC2)CC3)[nH]1` [compound 2061], for which, under setting [3], the EC50 was < 1 nM.
Consider `O=C(N[C@@H](C(=O)N1CCC[C@H]1c1ncc(-c2ccc(C3CCC(c4cnc([C@@H]5CCCN5C(=O)[C@H](NC(=O)C5CC5)c5ccccc5)[nH]4)CC3)cc2)[nH]1)c1ccccc1)C1CC1` (some centres unmarked) [compound 371], for which the EC50 under setting [4] is < 1 nM.
`COC(=O)N[C@H](C(=O)N1CCC[C@H]1c1ncc(-c2ccc(C34CCC(c5cnc([C@@H]6CCCN6C(=O)[C@H](NC(=O)C6CC6)c6ccccc6)[nH]5)(CC3)CC4)cc2)[nH]1)C(C)C` [compound 631]: the EC50 under setting [3] is < 1 nM.
As for `COC(=O)N[C@H](C(=O)N1CCC[C@H]1c1ncc(-c2ccc([C@H]3CC[C@H](c4cnc([C@@H]5CCCN5C(=O)[C@H](NC(=O)N5CCC(O)CC5)c5ccccc5)[nH]4)CC3)cc2)[nH]1)C(C)C` [compound 2003], the EC50 under setting [4] is < 1 nM.
Take `COC(=O)N[C@@H](C(=O)N1CCC[C@H]1c1ncc(-c2cc(F)c(N3CCC(C)(c4cnc([C@@H]5CCCN5C(=O)[C@H](NC(=O)OC)c5ccccc5)[nH]4)CC3)c(F)c2)[nH]1)c1ccccc1` [compound 2028]: the EC50 under setting [1] is < 1 nM.
For the molecule `COC(=O)N[C@@H](C(=O)N1CCC[C@H]1c1cnc(N2CCN(c3ccc(-c4cnc([C@@H]5CCCN5C(=O)[C@H](NC(=O)OC)c5ccccc5)[nH]4)cc3)C(=O)C2)[nH]1)c1ccccc1` [compound 2113], the EC50 (read-out: Inhibition of HCV genotype 1b, Table 7, 72 h incubation) was < 1 nM.
`O=C(N[C@@H](C(=O)N1CCC[C@H]1c1ncc(-c2cc(F)c(N3CCC(c4cnc([C@@H]5CCCN5C(=O)[C@H](NC(=O)C5CC5)c5ccccc5)[nH]4)CC3)c(F)c2)[nH]1)c1ccccc1)C1CC1` [compound 485]: under setting [1], the EC50 was < 1 nM.
The same measure, in the same setting: with `COC(=O)N[C@@H](C(=O)N1CCC[C@H]1c1ncc(-c2cc(F)c(N3CCC(c4cnc([C@@H]5CCCN5C(=O)[C@@H](c5ccccc5)N5CCCC5)[nH]4)CC3)c(F)c2)[nH]1)c1ccccc1` [compound 475] the figure was < 1 nM.
Take `COC(=O)N[C@H](C(=O)N1CCC[C@H]1c1nc2ccc(-c3ccc(-c4ccc5nc([C@@H]6CCCN6C(=O)[C@@H](NC(=O)OC)C6CCOCC6)[nH]c5c4)cc3)cc2[nH]1)C(C)C` [compound 2040]: under setting [2], the EC50 was < 1 nM.
Take `COC(=O)N[C@H](C(=O)N[C@@H](C)c1ncc(C2CCN(c3c(F)cc(-c4cnc([C@@H]5CCCN5C(=O)[C@@H](NC(=O)OC)C(C)C)[nH]4)cc3F)CC2)[nH]1)C(C)C` [compound 512]: the EC50 under setting [1] is < 1 nM.
For the molecule `CC(C)(C)OC(=O)N[C@@H](C(=O)N1CCC[C@H]1C(=O)N[C@H]1CC[C@@H](c2cccc(-c3cnc([C@@H]4CCCN4C(=O)[C@H](NC(=O)OC(C)(C)C)c4ccccc4)[nH]3)c2)CC1)c1ccccc1` [compound 363], the EC50 under setting [4] was < 1 nM.
On to `COC(=O)N[C@@H](C(=O)N1CCC[C@H]1c1ncc(C23CCC(c4ccc(-c5cnc([C@@H]6CCCN6C(=O)[C@H](NC(=O)C6CC6)c6ccccc6)[nH]5)cc4)(CC2)CC3)[nH]1)c1ccccc1` [compound 625], for which the EC50 under setting [3] is < 1 nM.
Turning to `CC(C)[C@H](NC(=O)N1CCCC1)C(=O)N1CCC[C@H]1c1nc2ccc(-c3ccc(-c4ccc5nc([C@@H]6CCCN6C(=O)[C@@H](NC(=O)N6CCCC6)C(C)C)[nH]c5c4)cc3)cc2[nH]1` [compound 552], the EC50 under setting [2] is > 1000 nM.
As for `O=C(N[C@@H](C(=O)N1CCC[C@H]1c1nc2ccc(-c3ccc(-c4ccc5nc([C@@H]6CCCN6C(=O)[C@H](NC(=O)C6CC6)c6ccccc6)[nH]c5c4)cc3)cc2[nH]1)c1ccccc1)C1CC1` [compound 930], the EC50 under setting [2] was < 1 nM.
`COC(=O)N[C@H](C(=O)N1CCC[C@H]1c1ncc(C23CCC(c4ccc(-c5cnc([C@@H]6CCCN6C(=O)[C@@H](c6ccccc6)N6CCCCC6)[nH]5)cc4)(CC2)CC3)[nH]1)C(C)C` [compound 2069]: the EC50 under setting [3] was < 1 nM.
In the case of `COC(=O)N[C@H](C(=O)N1CCC[C@H]1c1ncc(C23CCC(c4ccc(-c5cnc([C@@H]6CCCN6C(=O)[C@@H](NC(=O)N6CCC(O)CC6)C(C)C)[nH]5)cc4)(CC2)CC3)[nH]1)C(C)C` [compound 649], the EC50 under setting [3] is < 1 nM.
On the same count and under the same terms, with `COC(=O)N[C@H](C(=O)N[C@@H](C)c1ncc(-c2ccc(C34CCC(c5cnc([C@@H]6CCCN6C(=O)[C@@H](c6ccccc6)N(C)C)[nH]5)(CC3)CC4)cc2)[nH]1)C(C)C` [compound 2085] the figure was < 1 nM.
For the molecule `COC(=O)N[C@@H](C(=O)N1CCC[C@H]1c1ncc(-c2ccc(-c3ccc4nc([C@@H]5CCCN5C(=O)[C@H](NC(=O)OC)C(C)C)[nH]c4c3)cc2)[nH]1)C(C)C` [compound 404], the EC50 (read-out: Inhibition of HCV genotype 1b, Table 2, 72 h incubation) was 1 to 9.9 nM.
As for `COC(=O)N[C@@H](C(=O)N1CCC[C@H]1c1ncc(-c2cc(F)c(N3CCC(c4cnc([C@@H]5CCCN5C(=O)[C@H](NC(=O)N5CCOCC5)c5ccccc5)[nH]4)CC3)c(F)c2)[nH]1)c1ccccc1` [compound 471], under setting [1], the EC50 lay in the range of 1 to 9.9 nM.
As for `COC(=O)N[C@H](C(=O)N1CCC[C@H]1c1ncc(C23CCC(c4ccc(-c5cnc([C@@H]6CCCN6C(=O)[C@@H](NC(=O)N6CCN(C)CC6)C(C)C)[nH]5)cc4)(CC2)CC3)[nH]1)C(C)C` [compound 646], under setting [3], the EC50 was in the range of 10 to 999 nM.
